Like-named read-outs stand apart in the source and are kept apart here.
Legend:
drosophila = assay: Tests in vivo on drosophila: two-tube repellency test, Repulsive Index; set-up: key to RI against drosophila (FIG. 1) / RI (FIG. 2 and 3): RI = (N1−N2)/(N1+N2); N1 solvent tube, N2 compound tube; settings: for repellent activity compared with DEET, in words: 1% concentration in EtOH; for repellent or attractant activity against drosophila, in words: in vivo; for RI against drosophila (FIG. 1): concentration not given
Method: Description of Test system. To evaluate repellent efficacy, compounds were added to test chambers, each containing 40 drosophila. The test was performed in 3 phases: 1) fast (flies aspirated to test tubes); 2) implementation of the system (addition of filter paper, addition of solvent containing test compound); and 3) counting of the flies (after 22 hours exposure to test compound). The number of drosophila in each tube were counted: number of flies in the “filter paper+Solvent” tube was designated N1 and the number of flies in the “filter paper impregnated with test compound” was designated N2.
The Repulsive Index (R1) is given by the following equation: (N1−N2)/(N1+N2).

[1] = reported by US EPA; cited from earlier work
acetylcholinesterase = settings: insects and mammals; cited from earlier work
mosquitoes = settings: absence of body odor attractants such as 1-octen-3-ol, lactic acid, or carbon dioxide; cited from earlier work
Aedes mosquitoes = settings: cited from earlier work
Culex = settings: cited from earlier work
[2] = 10% solution of product, share of drosophila in EtOH tube
[3] = 10% solution of product, share of drosophila in product tube versus EtOH tube
[4] = 20% solution of product, share of drosophila in EtOH tube
[5] = 20% solution of product, share of drosophila in product tube versus EtOH tube
[6] = share of drosophila in solvent tube (AcOEt), product concentration not given
[7] = 5% solution of product, share of drosophila in EtOH tube
[8] = 5% solution of product, share of drosophila in product tube versus EtOH tube
[9] = share of drosophila in product tube versus EtOH tube after 22 hours, product concentration not given
[10] = share of drosophila in solvent tube (filter paper + EtOH) after 22 hours, product concentration not given

Row | Structure (SMILES) | In vivo tests: Tube EtOH (drosophila; [2]) | In vivo tests: Tube product (drosophila; [3]) | In vivo tests: Tube EtOH (drosophila; [4]) | In vivo tests: Tube product (drosophila; [5]) | further results
1 | CC(C)CCOc1ccc2ccc(=O)oc2c1 [EV06036] | 86.10% | 13.90% | 86.63% | 13.73% | –
2 | CCC(C)Oc1ccc2oc(=O)ccc2c1 (centres unmarked) [EV06068] | 90.91% | 9.09% | 93.85% | 6.15% | –
3 | CCC(CC)Oc1ccc2oc(=O)ccc2c1 [EV06018] | – | – | – | – | In vivo tests: Tube AcOEt (drosophila; [6]): 81.07%
4 | CCCC(C)Oc1ccc2oc(=O)ccc2c1 (centres unmarked) [EV06154] | 93.03% | 6.97% | 96.57% | 3.43% | repellent activity compared with DEET, in words (drosophila): performed effectively as a repellent
5 | CCC(C)Oc1ccc2ccc(=O)oc2c1 (centres unmarked) [EV04070] | 92.79% | 7.21% | 91.34% | 8.66% | repellent or attractant activity against drosophila, in words (drosophila): significant repellent activity
6 | C=CCOc1ccc2ccc(=O)oc2c1 [EV04032] | – | – | – | – | In vivo tests: Tube AcOEt (drosophila; [6]): 62.25%
7 | CCCCCCC(C)Oc1ccc2ccc(=O)oc2c1 (centres unmarked) [EV06148] | 93.66% | 6.34% | 96.00% | 4.00% | repellent activity compared with DEET, in words (drosophila): remained as effective a repellent as DEET
8 | CCC(C)COc1ccc2ccc(=O)oc2c1 (centres unmarked) [EV04094] | 89.63% | 10.37% | 86.47% | 13.53% | –
9 | CCCCN(CCCC)C(=O)COc1ccc2ccc(=O)oc2c1 [EV05120] | 90.36% | 9.64% | 85.58% | 14.42% | RI (FIG. 2 and 3) (drosophila; 10% solution in EtOH): ~0.8; RI (FIG. 2 and 3) (drosophila; 20% solution in EtOH): ~0.7; repellent or attractant activity against drosophila, in words (drosophila): acted as repellents
10 | CCCCCCCCN(CCCCCCCC)C(=O)c1ccc2ccc(=O)oc2c1 [EV06096] | 67.84% | 32.16% | 95.33% | 4.67% | repellent or attractant activity against drosophila, in words (drosophila): acted as repellents
11 | CC[C@H](C)OC(=O)c1ccc2ccc(=O)oc2c1 [EV05178] | 54.77% | 45.23% | 85.50% | 14.50% | RI (FIG. 2 and 3) (drosophila; 10% solution in EtOH): ~0.07; RI (FIG. 2 and 3) (drosophila; 20% solution in EtOH): ~0.7
12 | CCCCN(CCCC)C(=O)c1ccc2ccc(=O)oc2c1 [EV05138] | 82.54% | 17.46% | 86.27% | 13.73% | –
13 | CC(C)CCOc1cc(=O)oc2ccccc12 [EV06140] | 90.10% | 9.90% | 91.92% | 8.08% | –
14 | CCN(CC)C(=O)c1cccc(C)c1 [DEET, N,N-Diethyl-meta-toluamide] | – | – | – | – | RI against drosophila (FIG. 1) (drosophila): > 0.9; deaths among the potential DEET-associated seizure cases [1]: 4 deaths; activity on acetylcholinesterase, in words (acetylcholinesterase): inhibit the activity; repellent activity in behavioral test, in words (mosquitoes): strong repellent activity
15 | CCC(CC)Oc1cc(=O)oc2ccccc12 [EV06062] | 93.10% | 6.90% | 98.26% | 1.74% | repellent activity compared with DEET, in words (drosophila): remains as good a repellent as DEET; In vivo tests: Tube EtOH (drosophila; 1% solution of product, share of drosophila in EtOH tube): 87.08%; In vivo tests: Tube product (drosophila; 1% solution of product, share of drosophila in product tube versus EtOH tube): 12.92%; In vivo tests: Tube EtOH (drosophila; [7]): 96.08%; In vivo tests: Tube product (drosophila; [8]): 3.20%; Repulsive Index (RI) (drosophila; EtOH, fourth Tested Concentration, 0.056 mmol/mL (1% solution)): 0.742
16 | CC(C)C(C)Oc1ccc2ccc(=O)oc2c1 (centres unmarked) [EV06028] | 86.74% | 13.26% | 94.21% | 5.79% | –
17 | CCCCCCOc1ccc2ccc(=O)oc2c1 [EV06110] | 91.09% | 8.91% | 89.06% | 10.94% | –

Row | Structure (SMILES) | In vivo tests: Tube EtOH (drosophila; [2]) | In vivo tests: Tube product (drosophila; [3]) | In vivo tests: Tube EtOH (drosophila; [4]) | In vivo tests: Tube product (drosophila; [5]) | further results
18 | CCCCCCCCOc1ccc2ccc(=O)oc2c1 [EV06144] | 90.00% | 10.00% | 91.73% | 8.37% | In vivo tests: Tube EtOH (drosophila; [7]): 91.35%; In vivo tests: Tube product (drosophila; [8]): 8.65%
19 | CCCCCOc1cc(=O)oc2ccccc12 [EV06136] | – | – | – | – | In vivo tests: Tube AcOEt (drosophila; 20% solution of product, share of drosophila in AcOEt tube): 88.56%; In vivo tests: Tube product (drosophila; 20% solution of product, share of drosophila in product tube versus AcOEt tube): 11.44%
20 | C=C(C)C1CC=C(COc2ccc3ccc(=O)oc3c2)CC1 (centres unmarked) [EV04090] | – | – | – | – | In vivo tests: Tube CH2Cl2 (drosophila; share of drosophila in solvent tube (CH2Cl2), product concentration not given): 70.20%; Repulsive Index (RI) (drosophila; solvent CH2Cl2 according to Table 2, Tested Concentration 0.666 mmol/mL): 0.404
21 | CC(C)C(C)Oc1cc(=O)oc2ccccc12 (centres unmarked) [EV06128] | – | – | 66.83% | 33.17% | –
22 | CCC(C)OC(=O)N1CCCCC1CCO (centres unmarked) [picaridine, hydroxyethyl isobutyl piperidine carboxylate] | – | – | – | – | RI against drosophila (FIG. 1) (drosophila): > 0.6; protection against Aedes mosquitoes (Aedes mosquitoes; 7% solution): little or no protection; protection time against Aedes (Aedes mosquitoes; 15% solution): about one; protection time against Culex (Culex; 7% solution): about 2.5 hours; protection time against Culex (Culex; 15% solution): 4.8 h
23 | CC(C)(C)COc1ccc2ccc(=O)oc2c1 [EV06162] | – | – | – | – | repellent or attractant activity against drosophila, in words (drosophila): strong drosophila attractant
24 | CCCC(C)Oc1ccc2ccc(=O)oc2c1 (centres unmarked) [EV06044] | 83.91% | 16.08% | 96.12% | 3.82% | repellent or attractant activity against drosophila, in words (drosophila): significant repellent activity
25 | CCC(C)Oc1cc(=O)oc2ccccc12 (centres unmarked) [EV06088] | 90.50% | 9.50% | 91.04% | 8.96% | –
26 | CC(=O)OC(C)C(=O)Oc1ccc2ccc(=O)oc2c1 (centres unmarked) [EV04122] | – | – | – | – | In vivo tests: Tube product (drosophila; [9]): 68.18%; In vivo tests: Tube EtOH (drosophila; [10]): 31.82%
27 | CCCCCCCCN(CCCCCCCC)C(=O)COc1ccc2ccc(=O)oc2c1 [EV06092] | – | – | – | – | In vivo tests: Tube product (drosophila; [9]): 32.34%; In vivo tests: Tube EtOH (drosophila; [10]): 67.66%
28 | CCC(C)NC(=O)COc1ccc2ccc(=O)oc2c1 (centres unmarked) [EV06178] | – | – | – | – | RI against drosophila (FIG. 1) (drosophila): ~−0.2; repellent or attractant activity against drosophila, in words (drosophila): appeared to provide attractant activity
29 | CCC(CC)Oc1ccc2ccc(=O)oc2c1 [EV04114] | 88.00% | 12.00% | 93.09% | 6.91% | repellent or attractant activity against drosophila, in words (drosophila): significant repellent activity
30 | CCCC(C)Oc1cc(=O)oc2ccccc12 (centres unmarked) [EV06098] | 79.29% | 20.71% | 97.57% | 2.43% | –
31 | CCCCCOc1ccc2ccc(=O)oc2c1 [EV06026] | 87.53% | 12.47% | 94.12% | 5.88% | –
32 | CCC(C)Oc1ccc2ccc(=O)oc2c1 (centres unmarked) [EV04058] | 91.22% | 8.78% | 88.02% | 11.98% | –
33 | CCC(C)NC(=O)c1ccc2ccc(=O)oc2c1 (centres unmarked) [EV06166] | – | – | – | – | RI against drosophila (FIG. 1) (drosophila): ~0.2
